Data set [1] can be described thus: Stability in human fibroblasts assessed as retention time after 2 days. The data set is classed as ADME, cell-based. The settings on record: fibroblast, 48 h.
Data set [2] is described as follows: Photostability after UV irradiation. The data set is classed as physicochemical.
Data set [3] in a line: Thermal stability at 4 degC after 4 weeks. The data set is classed as physicochemical. The settings on record: 672 h.
Data set [4] in a line: Cytotoxicity against human normal fibroblast after 1 day by MTT assay. The data set is classed as cell-based. The settings on record: 24 h. In general terms: Tetrazolium assays rely on reduction of a dye to a coloured formazan, in cell work by metabolically active cells.
Data set [5] deals with HaCaT. Kind of data set: Decrease in collagenase expression in Coll-CAT gene transfected human HaCaT cells co-transfected with c-Jun relative to control. It is filed as functional.
Data set [6] deals with HaCaT. Kind of data set: Decrease in collagenase expression in Coll-CAT gene transfected human HaCaT cells co-transfected with c-Jun and retinoic acid receptor relative to control. The data set is classed as functional.
Data set [7] has as its system Fibroblast. Kind of data set: Induction of CRABP 2 mRNA expression in human normal fibroblast at 1 uM by […] relative to control. It is filed as functional.
The subject of data set [8] is Fibroblast. Kind of data set: Induction of CRABP 2 mRNA expression in human normal fibroblast at 10 uM by […] relative to control. The data set is classed as functional. Background: In western blotting, separated proteins are transferred to a membrane and probed.
The subject of data set [9] is Fibroblast. Kind of data set: Induction of collagen biosynthesis in human normal fibroblast. It is filed as functional, cell-based.
Data set [10] has as its target T1, Retinoic acid receptor alpha (Homo sapiens) (UniProt P10276).
T1 sequence (whole entry): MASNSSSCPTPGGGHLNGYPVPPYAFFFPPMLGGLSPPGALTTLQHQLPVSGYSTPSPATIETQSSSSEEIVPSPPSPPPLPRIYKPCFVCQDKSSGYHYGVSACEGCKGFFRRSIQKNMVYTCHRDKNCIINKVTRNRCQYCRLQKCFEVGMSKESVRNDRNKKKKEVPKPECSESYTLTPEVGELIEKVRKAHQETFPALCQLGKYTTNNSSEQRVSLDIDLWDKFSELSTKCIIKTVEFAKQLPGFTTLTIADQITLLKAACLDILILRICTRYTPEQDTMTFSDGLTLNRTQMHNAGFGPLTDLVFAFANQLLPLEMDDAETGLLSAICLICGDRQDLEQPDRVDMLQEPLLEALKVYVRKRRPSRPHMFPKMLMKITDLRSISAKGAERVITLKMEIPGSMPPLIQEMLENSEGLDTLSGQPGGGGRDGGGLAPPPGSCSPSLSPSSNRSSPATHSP
Kind of data set: Increase in transcriptional activity of RARalpha receptor epressed in human HaCaT cells co-transfected with DR5-tk-CAT reporter plasmid assessed as beta-galactosidase activity by CAT-ELISA. It is filed as cell-based. On the technique in general: ELISA stands for enzyme-linked immunosorbent assay.

The target of data set [11] is Transcription factor Jun (Homo sapiens) (UniProt P05412). Briefly: Inhibition of AP1 expressed in human HaCaT cells transfected with Coll-CAT reporter gene assessed as collagenase expression by CAT-ELISA. It is filed as cell-based.
Chain of Transcription factor Jun (Homo sapiens) (P05412 whole entry): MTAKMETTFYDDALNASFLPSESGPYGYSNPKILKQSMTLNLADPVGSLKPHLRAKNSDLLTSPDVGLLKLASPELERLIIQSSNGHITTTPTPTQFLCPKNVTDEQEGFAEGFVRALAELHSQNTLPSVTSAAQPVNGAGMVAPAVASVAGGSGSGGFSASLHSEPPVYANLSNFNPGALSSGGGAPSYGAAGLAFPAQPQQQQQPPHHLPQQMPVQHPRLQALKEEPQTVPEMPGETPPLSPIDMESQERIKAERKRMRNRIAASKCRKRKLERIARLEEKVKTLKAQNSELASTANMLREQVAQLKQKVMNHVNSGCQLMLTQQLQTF
A short description of data set [12]: Thermal stability at 40 degC after 4 weeks. It is filed as physicochemical. The settings on record: 672 h.

Activity calls are given as the source filed them. The calls are words filed in the database; no cut-off is given here.

For `CC1=C(/C=C/C(C)=C/C=C/C(C)=C/COC(=O)/C=C(C)/C=C/C=C(C)/C=C/C2=C(C)CCCC2(C)C)C(C)(C)CCC1` [RETINYLRETINOATE], the Activity in [1] is recorded as 18.94 min; in [7] it was 1.56; in data set [8], 1.75. For the same compound, the Stability result in data set [2] and in data set [3] was “Stable” throughout. The compound further had an IC50 in data set [4] of 40 µM. Further, the “inhibition (INH)” value in data set [5] is 6.7%; in data set [6], 52%. For the same compound, the outcome in data set [9], in [10] and in data set [11] was Active.
As to `CC1=C(/C=C/C(C)=C/C=C/C(C)=C/CO)C(C)(C)CCC1` [RETINOL], the Activity result in data set [2] is on record as “Not Active”; in data set [12], “Not Active”; in [7], 1.4; in data set [8], 1.44. In addition, in data set [3], the Stability result is “Stable”. In data set [4], the IC50 was 25 µM. For the same compound, the “inhibition (INH)” value in data set [5] was found to be 7.3%; in data set [6], 33%. In data set [10], the result was Active.
Consider `CC1=C(/C=C/C(C)=C/C=C/C(C)=C/C(=O)O)C(C)(C)CCC1` [TRETINOIN], for which the “inhibition (INH)” value in data set [5] came out at 5.4%; in [6] it was 64%. In addition, the Activity is given as 1.84 in data set [7] and 2.05 in [8].
In the case of `CCCCCCCCCCCCCCCC(=O)OC/C=C(C)/C=C/C=C(C)/C=C/C1=C(C)CCCC1(C)C` [VITAMIN A PALMITATE], the Activity came out at 1.2 in [7] and 1.4 in [8].

By IC50 is commonly meant the concentration needed to halve the response being measured. High values mean weaker potency in that assay, low ones greater potency in that assay.

Source of the values: ChEMBL document CHEMBL1150766, “Synthesis and in vitro biological activity of retinyl retinoate, a novel hybrid retinoid derivative” (Bioorg Med Chem, 2008).
